Assay results: a melting point compilation (Tetko et al.; mined from patent text by program, amines drawn as free bases though some values may be those of a salt)

Which melting point does the source give for `COc1cc(N)c(Cl)cc1C(=O)NCC1CCN(CCCCCC(=O)c2ccc(Cl)cc2)CC1` here?
Its melting point is 156 to 158 °C.

Which melting point does the source give for `O=[N+]([O-])c1c(-c2ccc(Cl)cc2)[nH]c(SC(F)(F)F)c1Br` here?
The melting point was 160 to 165 °C.

With `CS(=O)(=O)OCCC(c1ccccc1)c1ccccc1` as the compound, how does the melting point read?
Its melting point is 83 to 85 °C.

Which melting point does the source give for `Cn1nc(C(F)(F)F)c(C(=O)O)c1Sc1ccc(F)cc1` here?
Its melting point is 190 to 194 °C.

Which melting point does the source give for `COc1ccc(C(=O)Nc2ccccc2)cc1NC(=S)Nc1ccc(Cl)cc1` here?
Its melting point is 179 to 180 °C.

Which melting point does the source give for `CCn1nc(OCCCc2ccc(OCCOC)cc2Oc2ncc(C(F)(F)F)cc2Cl)cc1CCC(=O)O` here?
Its melting point is 101 to 103 °C.

Which melting point does the source give for `COc1cccc(N(CC(=O)OC(C)(C)C)C(=O)CNC(=O)Nc2cccc(C)c2)c1` here?
Its melting point is 60 °C.

For `Cc1ccc(C2=NN=C(c3ccccc3Cl)N(C)N2)cc1`, which melting point is on record?
The melting point was 152 to 154 °C.

For `O=[N+]([O-])c1cnc2ccc(SC(c3ccccc3)(c3ccccc3)c3ccccc3)nn12`, which melting point is on record?
The melting point was 168 to 170 °C.

Which melting point does the source give for `O=c1oc2cccnc2n1CCN1CCN(c2cccc(C(F)(F)F)c2)CC1` here?
The melting point was 92 to 93 °C.

With `Cc1c2n(c(=O)c3c(O)cccc13)CCCS2=O` (stereo unspecified) as the compound, how does the melting point read?
The melting point was 169 to 170 °C.

Which melting point does the source give for `Cc1cc(C(C)(C)C)cc2c1OCC(/C=C/C=C/C=C/C(=O)O)=C2` here?
The melting point was 225 to 227 °C.

For `Cc1ccnc2c1N=C(S(C)(=O)=O)c1cccnc1N2C1CC1`, which melting point is on record?
The melting point was 172 to 173 °C.

Which melting point does the source give for `OCC=Cc1ccc(-c2ccc(OC(F)(F)F)cc2)cc1` here?
Its melting point is 121 to 123 °C.

With `Cc1c(C)c2c(c(C)c1NC(=O)CC(C)(C)C)C(c1ccc(C=O)cc1)CO2` (stereo unspecified) as the compound, how does the melting point read?
Its melting point is 195 to 196 °C.

With `O=c1[nH]c2cc(Cl)c(Cl)cc2[n+]([O-])c1-c1ccc(O)cc1` as the compound, how does the melting point read?
The melting point was 276 to 278 °C.

With `O=C(O)c1ccc(OCCNC(=O)C2Cc3ccccc3N2S(=O)(=O)c2ccc(-c3ccc(F)cc3)cc2)c(F)c1` (stereo unspecified) as the compound, how does the melting point read?
The melting point was 118 °C.

For `N#Cc1ccn2c1CSC2c1cccnc1` (stereo unspecified), which melting point is on record?
Its melting point is 110 °C.

Which melting point does the source give for `CN(C)Cc1ccc2cc(NC(=O)c3ccc(-c4ccc(Cl)cc4)cc3)ccc2c1` here?
The melting point was 230 to 231 °C.

Which melting point does the source give for `O=C(c1ccccc1)c1ccc(OCCCCOc2ccc(C(=O)c3ccccc3)cc2)cc1` here?
Its melting point is 163 to 164 °C.

With `CC(C)(C)c1ccc(Sc2ccc(C=C3SC(=S)NC3=O)cc2)cc1` as the compound, how does the melting point read?
Its melting point is 211 to 212 °C.

For `CCCc1nc2cccc(C(=S)OC)c2n1Cc1ccc(-c2ccccc2)c(-c2nc(=O)o[nH]2)c1`, which melting point is on record?
The melting point was 220 to 221 °C.

With `CNC1=NS(=O)(=O)N=C1NCCSCc1nc[nH]c1C` as the compound, how does the melting point read?
The melting point was 98 to 110 °C.

For `Nc1cc(Cl)c(Br)cc1[N+](=O)[O-]`, which melting point is on record?
Its melting point is 185 to 195 °C.

For `CC(=NO)C1CC(Cn2ccnc2)(c2ccc(Cl)cc2)N(C)O1` (stereo unspecified), which melting point is on record?
Its melting point is 214 to 216 °C.

With `CCOP(=O)(Cc1ccc(NC(=O)Cc2cnoc2-c2ccccc2)cc1)OCC` as the compound, how does the melting point read?
The melting point was 132 to 133 °C.

With `CCC(=O)NCCC1CCc2ccc3ncoc3c21` (stereo unspecified) as the compound, how does the melting point read?
Its melting point is 89 to 90 °C.

With `COc1cc2c(cc1OC)-c1c(C#N)sc(=S)n1CC2` as the compound, how does the melting point read?
The melting point was 228 °C.

With `O=C(CCC(=O)Oc1ccc([N+](=O)[O-])cc1)Oc1ccc([N+](=O)[O-])cc1` as the compound, how does the melting point read?
Its melting point is 176 to 178 °C.

With `CC(C)(OCc1n[nH]c2ccc([N+](=O)[O-])cc12)C(=O)O` as the compound, how does the melting point read?
Its melting point is 210 °C.

For `CC(=O)NC[C@H]1CN(c2cc(F)c3c(c2)CCCCC3=O)C(=O)O1`, which melting point is on record?
The melting point was 151 to 152 °C.

With `CCN(CC)S(=O)(=O)c1ccc(C=CC(C)(O)C(F)(F)F)cc1` (stereo unspecified) as the compound, how does the melting point read?
The melting point was 112 to 117 °C.

Which melting point does the source give for `O=C(O)c1ccc2oc3ccccc3c(=O)c2c1` here?
Its melting point is greater than 280 °C.

With `O=C(c1ccccc1)c1ccc(SCC(O)CO)cc1` (stereo unspecified) as the compound, how does the melting point read?
Its melting point is 86 to 88 °C.

For `C=CCC(NC(=O)c1ccc(OC)cc1)C(C)=O` (stereo unspecified), which melting point is on record?
The melting point was 58 to 59 °C.

With `ON=Cc1ccc(-c2ccc(O)cc2)cc1` as the compound, how does the melting point read?
The melting point was 207 to 210 °C.

Which melting point does the source give for `COc1ccc2cc(C(=O)C(C)O[Si](C)(C)C)ccc2c1` (stereo unspecified) here?
Its melting point is 72 to 75 °C.

Which melting point does the source give for `O=C(NC(=O)c1nnn(Cc2ccccc2)c1NC(=O)c1ccccc1)c1ccccc1` here?
Its melting point is 171 to 173 °C.

With `CC1CN(c2nc(Cl)nc(C(C)O)n2)CC(C)N1` (stereo unspecified) as the compound, how does the melting point read?
Its melting point is 126 to 128 °C.

Which melting point does the source give for `CCC1CC(=O)C2(C)CCC3c4ccc(OC)cc4CCC3C12` (stereo unspecified) here?
Its melting point is 125 to 129 °C.

Which melting point does the source give for `Cc1nc(N2CCN(Cc3ccc(C(F)(F)F)cc3)C2=O)sc1-c1cc[nH]n1` here?
Its melting point is 212 to 213 °C.

With `Cc1c(SCCCCl)ccnc1CSc1nc2ccccc2[nH]1` as the compound, how does the melting point read?
The melting point was 112 to 114 °C.

With `O=C(/C=C/[C@@H]1[C@H]2CC(=O)O[C@H]2C[C@H]1OC(=O)c1ccc(-c2ccccc2)cc1)COc1cccc(C(F)(F)F)c1` as the compound, how does the melting point read?
The melting point was 115 to 116 °C.

With `O=[N+]([O-])c1cc([N+](=O)[O-])c(Nc2ccc(Cl)c3ccccc23)c(C(F)(F)F)c1` as the compound, how does the melting point read?
The melting point was 197 to 198 °C.

With `CCOC(=O)c1c(N)nc(C)c(NC(C)=O)c1C` as the compound, how does the melting point read?
Its melting point is 168 to 170 °C.

Which melting point does the source give for `O=C(c1ccccc1)c1ccc(OCCCCBr)cc1` here?
Its melting point is 42 to 43 °C.

For `CC1(C)Oc2ccc(C#N)cc2[C@@H](NC(=O)c2cscc2-n2cccc2)[C@@H]1O`, which melting point is on record?
The melting point was 174 to 175 °C.

For `COc1ccccc1N1CCN(CCCNc2ncc3cc(-c4c(Cl)cccc4Cl)c(=O)n(C)c3n2)CC1`, which melting point is on record?
Its melting point is 187 to 188 °C.

With `O=C(Cn1c(Cl)ccc1Cl)N=C1NCCN1` as the compound, how does the melting point read?
Its melting point is 225 °C.

Which melting point does the source give for `COC(=O)c1ncc(N)nc1N` here?
Its melting point is 252 to 254 °C.

With `Cn1c(=O)c2c(nc(Cl)n2Cc2ccccc2C#N)n(C)c1=O` as the compound, how does the melting point read?
The melting point was 222 to 224 °C.
